# Legend:
# human colon tumor HCT116 = test: Activity on the colon tumor HCT116 grafted by the subcutaneous route onto female nu/nu Swiss mice; format: in vivo
# Procedure: This efficacy can be quantified, for example, by the net log 10 of the killed cells which is determined according to the following formula:
# net log 10 of the killed cells=[T-C (days)−duration of the treatment (days)]/[3.32·Td]
# in which T-C represents the delay in tumor growth which is the median time, in days, which the tumors of the treated group (T) and the tumors of the control group (C) took to reach a predetermined value (1 g for example) and Td represents the time, in days, necessary for the doubling of the volume of the tumor in the control animals [T. H. CORBETT et al., Cancer, 40, 2660-2680 (1977); F. M. SCHABEL et al., Cancer Drug Development, Part B, Methods in Cancer Research, 17, 3-51, New York, Academic Press Inc. (1979)].
# A product is considered as very active if net log 10 of the killed cells is greater than or equal to 2.8. […] In such a case, the net log 10 of the killed cells has a positive value.
# The combination, used at its own maximum tolerated dose, in which each of the constituents will be present at a dose which is generally lower than or equal to its maximum tolerated dose, will show a therapeutic synergy when the net log 10 of the killed cells is higher than the value of the net log 10 of the killed cells of the better constituent when it is administered alone.
# The efficacy of the combinations on solid tumors can be determined experimentally in the following manner:
# The animals subjected to the experiment, generally mice, are grafted bilaterally by the subcutaneous route with 30 to 60 mg of a tumor fragment on day 0. In the case of treatment of advanced tumors, the tumors are allowed to develop to the desired size, the animals having insufficiently developed tumors being eliminated. The selected animals are divided as a function of their tumor weight in a homogeneous manner between the treated and control groups, before the start of the treatments. Chemotherapy generally commences 12 to 14 days after the implantation of the tumor and the animals are observed every day. The different groups of animals are weighed every day until the maximum loss of weight is reached and then the groups are weighed at least once per week until the end of the test. The tumors are measured 2 to 3 times per week, with the aid of a slide calliper, according to two measurements in mm which are then converted into tumor weight according to the following formula: […]
# The tumors are measured two or three times per week until the tumor reaches approximately 2 g or until the death of the animal if this occurs before the tumor reaches 2 g. An autopsy is carried out on the animals at the time of sacrifice.
# The antitumor activity is determined as a function of the different parameters recorded.
# [1] = Toxicity of the combination of product A with irinotecan; format: in vivo; conditions: in combination with the topoisomerase inhibitor irinotecan
# [2] = Table 1, tumor doubling time 3.4 days, 248 mg/kg per injection, days 14-25 (2x/d.)
# [3] = Table 1, tumor doubling time 3.4 days, 400 mg/kg per injection, days 14-25 (2x/d.)
# [4] = Table 1, tumor doubling time 3.4 days, 645 mg/kg per injection, days 14-25 (2x/d.)
# [5] = Table 2, tumor doubling time 4.5 days, 645 mg/kg per injection, days 14-25 (2x/d.)
# [6] = Table 1, tumor doubling time 3.4 days, doses 25 and 248 mg/kg per injection, days 14, 18, 22 (2x/d.) and 25-36 (2x/d.)
# [7] = Table 1, tumor doubling time 3.4 days, doses 25 and 400 mg/kg per injection, days 14, 18, 22 (2x/d.) and 25-36 (2x/d.)
# [8] = Table 1, tumor doubling time 3.4 days, doses 25 and 645 mg/kg per injection, days 14, 18, 22 (2x/d.) and 25-36 (2x/d.)
# [9] = Table 1, tumor doubling time 3.4 days, doses 41 and 248 mg/kg per injection, days 14, 18, 22 (2x/d.) and 25-36 (2x/d.)
# [10] = Table 1, tumor doubling time 3.4 days, doses 41 and 400 mg/kg per injection, days 14, 18, 22 (2x/d.) and 25-36 (2x/d.)
# [11] = Table 1, tumor doubling time 3.4 days, doses 41 and 645 mg/kg per injection, days 14, 18, 22 (2x/d.) and 25-36 (2x/d.)
# [12] = Table 2, tumor doubling time 4.5 days, 11.2 mg/kg per injection, days 14, 18, 22 (2x/d.)
# [13] = Table 2, tumor doubling time 4.5 days, 18.7 mg/kg per injection, days 14, 18, 22 (2x/d.)
# [14] = Table 2, tumor doubling time 4.5 days, 31.2 mg/kg per injection, days 14, 18, 22 (2x/d.)
# [15] = Table 2, tumor doubling time 4.5 days, 52.0 mg/kg per injection, days 14, 18, 22 (2x/d.)
structure (smiles),measurement,setting,value
"C=C(C(=O)N1C[C@@H]2[C@]3(c4ccc(C)cc4)CC[C@@H](c4ccccc43)[C@]2(C(=O)O)C1)c1ccccc1OC (racemic) [A, (3aRS,4SR,9SR,9aRS)-4,9-ethano-2-[2-(2-methoxyphenyl)propenoyl]-9-(4-methylphenyl)-2,3,3a,4,9,9a-hexahydro-1H-benzo[f]isoindole-3a-carboxylic acid]",(T-C)-(Duration of treatment),human colon tumor HCT116; [2],-10.9 days
same,Long-term survivors on day 154,human colon tumor HCT116; [2],0/6
same,net log10 of killed cells,human colon tumor HCT116; [2],−1.0
same,(T-C)-(Duration of treatment),human colon tumor HCT116; [3],-4.2 days
same,Long-term survivors on day 154,human colon tumor HCT116; [3],0/6
same,net log10 of killed cells,human colon tumor HCT116; [3],−0.4
same,(T-C)-(Duration of treatment),human colon tumor HCT116; [4],-2.7 days
same,Long-term survivors on day 154,human colon tumor HCT116; [4],0/6
same,net log10 of killed cells,human colon tumor HCT116; [4],−0.2
same,(T-C)-(Duration of treatment),human colon tumor HCT116; [5],6.9 days
same,Long-term survivors on day 154,human colon tumor HCT116; [5],0/5
same,net log10 of killed cells,human colon tumor HCT116; [5],0.5
same,toxicity in combination with irinotecan,[1],does not increase the toxicity of irinotecan
"CCc1c2c(nc3ccc(OC(=O)N4CCC(N5CCCCC5)CC4)cc13)-c1cc3c(c(=O)n1C2)COC(=O)[C@]3(O)CC [Irinotecan, irinotecan]",(T-C)-(Duration of treatment),human colon tumor HCT116; [6],19.1 days
same,Long-term survivors on day 154,human colon tumor HCT116; [6],1/6
same,net log10 of killed cells,human colon tumor HCT116; [6],1.7
same,Long-term survivors on day 154,human colon tumor HCT116; [7],2/7
same,net log10 of killed cells,human colon tumor HCT116; [7],3.3
same,Long-term survivors on day 154,human colon tumor HCT116; [8],3/8
same,net log10 of killed cells,human colon tumor HCT116; [8],3.6
same,Long-term survivors on day 154,human colon tumor HCT116; [9],4/8
same,net log10 of killed cells,human colon tumor HCT116; [9],3.3
same,(T-C)-(Duration of treatment),human colon tumor HCT116; [10],55.9 days
same,Long-term survivors on day 154,human colon tumor HCT116; [10],4/7
same,net log10 of killed cells,human colon tumor HCT116; [10],5.0
same,Long-term survivors on day 154,human colon tumor HCT116; [11],4/8
same,net log10 of killed cells,human colon tumor HCT116; [11],3.4
same,(T-C)-(Duration of treatment),human colon tumor HCT116; [12],8.3 days
same,net log10 of killed cells,human colon tumor HCT116; [12],0.6
same,Long-term survivors on day 154,human colon tumor HCT116; [13],0/5
same,net log10 of killed cells,human colon tumor HCT116; [13],1.1
same,Long-term survivors on day 154,human colon tumor HCT116; [14],0/5
same,net log10 of killed cells,human colon tumor HCT116; [14],1.0
same,(T-C)-(Duration of treatment),human colon tumor HCT116; [15],19.5 days
same,Long-term survivors on day 154,human colon tumor HCT116; [15],0/5
same,net log10 of killed cells,human colon tumor HCT116; [15],1.3
same,(T-C)-(Duration of treatment),"human colon tumor HCT116; mouse, in vivo, 86 mg/kg",toxic

# From patent US6342487B1, “Compositions containing at least one farnesyl transferase inhibitor and at least one topoisomerase inhibitor and compositions containing at least one farnesyl transferase inhibitor and at least one taxoid” (Aventis Pharma Rorer S.A., priority 1998, dated 2002)
